Results as given in patent US8716284B2, “Adamantyl diamide derivatives and uses of same” (H. Lundbeck A/S, priority 2008, dated 2014).

molecular target: T1, rat metabotropic glutamate receptor 5 (mGluR5) (Rattus norvegicus, UniProt P31424); experiment: Calcium mobilization assay (FLIPR) for negative or positive allosteric activity, HEK 293 cells; assay type: cell-based; conditions: HEK293, negative allosteric modulation, inhibition of EC80 glutamate response; read-out: FLIPR maximum inhibition
T1 construct: expressed in transfected cells; host or cells: HEK 293
T1 sequence (P31424 21-1171 isoform P31424-2 limits assumed): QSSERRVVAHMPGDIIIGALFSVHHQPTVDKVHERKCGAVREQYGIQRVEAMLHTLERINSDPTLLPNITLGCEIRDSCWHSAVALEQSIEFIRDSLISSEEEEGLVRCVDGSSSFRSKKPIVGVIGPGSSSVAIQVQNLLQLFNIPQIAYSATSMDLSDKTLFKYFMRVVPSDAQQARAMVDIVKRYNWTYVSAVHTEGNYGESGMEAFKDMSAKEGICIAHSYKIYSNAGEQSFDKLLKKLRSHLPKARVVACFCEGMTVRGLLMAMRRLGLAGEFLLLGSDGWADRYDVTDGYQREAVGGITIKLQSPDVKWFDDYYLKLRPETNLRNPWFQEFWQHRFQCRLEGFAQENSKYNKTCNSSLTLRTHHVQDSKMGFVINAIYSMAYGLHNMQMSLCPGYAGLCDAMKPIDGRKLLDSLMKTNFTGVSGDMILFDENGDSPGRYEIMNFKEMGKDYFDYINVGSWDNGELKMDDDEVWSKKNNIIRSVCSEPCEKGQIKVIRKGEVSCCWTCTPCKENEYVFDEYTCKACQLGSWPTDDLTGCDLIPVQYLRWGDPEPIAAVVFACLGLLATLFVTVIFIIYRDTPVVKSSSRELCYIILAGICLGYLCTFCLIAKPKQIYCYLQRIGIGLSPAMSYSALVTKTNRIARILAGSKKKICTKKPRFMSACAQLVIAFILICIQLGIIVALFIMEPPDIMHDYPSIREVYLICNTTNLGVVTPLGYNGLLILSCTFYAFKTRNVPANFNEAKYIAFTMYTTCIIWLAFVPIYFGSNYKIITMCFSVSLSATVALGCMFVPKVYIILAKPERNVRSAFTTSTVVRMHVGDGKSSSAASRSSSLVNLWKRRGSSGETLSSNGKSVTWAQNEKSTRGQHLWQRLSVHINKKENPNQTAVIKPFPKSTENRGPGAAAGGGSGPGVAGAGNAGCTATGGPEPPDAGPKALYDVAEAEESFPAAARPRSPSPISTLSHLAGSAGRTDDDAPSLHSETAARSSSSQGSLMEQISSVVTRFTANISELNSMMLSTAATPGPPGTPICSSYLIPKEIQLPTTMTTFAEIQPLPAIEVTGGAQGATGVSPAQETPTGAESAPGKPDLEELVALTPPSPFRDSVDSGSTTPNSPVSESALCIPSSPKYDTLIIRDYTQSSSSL
Experimental: The cDNA for rat metabotropic glutamate receptor 5 (mGluR5) was a generous gift from S. Nakanishi (Kyoto University, Kyoto, Japan). The mGluR5 was stably expressed in a HEK 293 cell line and grown in Dulbecco's Modified Eagle Medium (DMEM) (Invitrogen, Carlsbad, Calif.) with supplements (10% bovine calf serum, 4 mM glutamine, 100 units/mL penicillin, 100 μg/mL streptomycin and 0.75 mM G1418) at 37° C., 5% CO2. Twenty-four hours prior to assay, cells were seeded into 384-well black wall microtiter plates coated with poly-D-lysine. Just prior to assay, media was aspirated and cells dye-loaded (25 μL/well) with 3 μM Fluo-4/0.01% pluronic acid in assay buffer (Hank's Balanced Saline Solution (HBSS)): 150 mM NaCl, 5 mM KCl, 1 mM CaCl2, 1 mM MgCl2, plus 20 mM N-2-Hydroxyethylpiperazine-N′-2-ethanesulfonic acid (HEPES), pH 7.4, 0.1% bovine serum albumin (BSA) and 2.5 mM probenicid) for 1 hour in 5% CO2 at 37° C. After excess dye was discarded, cells were washed in assay buffer and layered with a final volume equal to 30 μL/well. Basal fluorescence is monitored in a fluorometric imaging plate reader (FLIPR) (Molecular Devices, Sunnyvale, Calif.) with an excitation wavelength of 488 nm and an emission range of 500 to 560 nm. Laser excitation energy was adjusted so that basal fluorescence readings were approximately 10,000 relative fluorescent units. Cells were stimulated with an EC20 or an EC80 concentration of glutamate in the presence of a compound to be tested, both diluted in assay buffer, and relative fluorescent units were measured at defined intervals (exposure=0.6 sec) over a 3 min period at room temperature. Basal readings derived from negative controls were subtracted from all samples. Maximum change in fluorescence was calculated for each well. Concentration-response curves derived from the maximum change in fluorescence were analyzed by nonlinear regression (Hill equation). A negative modulator can be identified from these concentration-response curves if a compound produces a concentration dependent inhibition of the EC80 glutamate response. […] Examples 11-163 also were tested in the above assay.
A positive modulator can be identified from these concentration-response curves if a compound produces a concentration dependent increase in the EC20 glutamate response.

With `Cc1cccc(C(=O)NC23CC4CC(CC(NC(=O)c5cccc(F)c5)(C4)C2)C3)n1` [Example 30, 6-Methyl-pyridine-2-carboxylic acid [3-(3-fluoro-benzoylamino)-adamantan-1-yl]-amide] as the compound, how does the Emax read?
Its Emax is 63 to 99%.

`Cc1cncc(C(=O)NC23CC4CC(C2)CC(NC(=O)c2cccc(Cl)c2F)(C4)C3)n1` [Example 152, 6-Methyl-pyrazine-2-carboxylic acid [3-(3-chloro-2-fluoro-benzoylamino)-adamantan-1-yl]-amide] was tested. Which Emax did it give?
The Emax was 70 to 99%.

`Cc1cncc(C(=O)NC23CC4CC(CC(NC(=O)c5ccnc(F)c5)(C4)C2)C3)n1` [Example 160, 6-Methyl-pyrazine-2-carboxylic acid {3-[(2-fluoro-pyridine-4-carbonyl)-amino]-adamantan-1-yl}-amide] was tested. Which Emax did it give?
The Emax was 70 to 99%.

How did the Emax turn out when `Cc1cccc(C(=O)NC23CC4CC(C2)CC(NC(=O)c2cccc(C(F)(F)F)n2)(C4)C3)n1` [Example 23, 6-Trifluoromethyl-pyridine-2-carboxylic acid {3-[(6-methyl-pyridine-2-carbonyl)-amino]-adamantan-1-yl}-amide] was run?
Its Emax is 63 to 99%.

Which Emax does the source give for `NC(=O)CCNc1cccc(C(=O)NC23CC4CC(CC(NC(=O)c5cccc(F)c5)(C4)C2)C3)n1` [Example 252, 6-(2-Carbamoyl-ethylamino)-pyridine-2-carboxylic acid [3-(3-fluoro-benzoylamino)-adamantan-1-yl]-amide] here?
Its Emax is 63 to 99%.

For `CNC(=O)c1cccc(C(=O)NC23CC4CC(CC(NC(=O)c5ccccn5)(C4)C2)C3)n1` [Example 64, Pyridine-2,6-dicarboxylic acid 2-methylamide 6-({3-[(pyridine-2-carbonyl)-amino]-adamantan-1-yl}-amide)], which Emax is on record?
The Emax was 63 to 99%.

`Cc1cccc(C(=O)NC23CC4CC(CC(NC(=O)c5ccncc5)(C4)C2)C3)n1` [Example 116, 6-Methyl-pyridine-2-carboxylic acid {3-[(pyridine-4-carbonyl)-amino]-adamantan-1-yl}-amide] was tested. Which Emax did it give?
Its Emax is 70 to 99%.

`Cc1cccc(C(=O)NC23CC4CC(CC(NC(=O)c5cc(C)on5)(C4)C2)C3)n1` [Example 39, 6-Methyl-pyridine-2-carboxylic acid {3-[(5-methyl-isoxazole-3-carbonyl)-amino]-adamantan-1-yl}-amide] was tested. Which Emax did it give?
Its Emax is 63 to 99%.

How did the Emax turn out when `O=C(NC12CC3CC(C1)CC(NC(=O)c1ccncn1)(C3)C2)c1ccccn1` [Example 60, Pyrimidine-4-carboxylic acid {3-[(pyridine-2-carbonyl)-amino]-adamantan-1-yl}-amide] was run?
The Emax was 63 to 99%.

`O=C(NC12CC3CC(C1)CC(NC(=O)c1ccc4nccn4c1)(C3)C2)c1cccc(F)c1` [Example 101, Imidazo[1,2-a]pyridine-6-carboxylic acid [3-(3-fluoro-benzoylamino)-adamantan-1-yl]-amide] was tested. Which Emax did it give?
The Emax was 63 to 99%.

Which Emax does the source give for `Cc1cccc(C(=O)NC23CC4CC(C2)CC(NC(=O)c2ccn(C)n2)(C4)C3)n1` [Example 20, 6-Methyl-pyridine-2-carboxylic acid {3-[(1-methyl-1H-pyrazole-3-carbonyl)-amino]-adamantan-1-yl}-amide] here?
Its Emax is 63 to 99%.

With `Cc1cccc(C(=O)NC23CC4CC(CC(NC(=O)c5ccc6nccn6c5)(C4)C2)C3)n1` [Example 53, Imidazo[1,2-a]pyridine-6-carboxylic acid {3-[(6-methyl-pyridine-2-carbonyl)-amino]-adamantan-1-yl}-amide] as the compound, how does the Emax read?
Its Emax is 63 to 99%.

`Cc1cc(C(=O)NC23CC4CC(CC(NC(=O)c5ccccn5)(C4)C2)C3)no1` [Example 73, Pyridine-2-carboxylic acid {3-[(5-methyl-isoxazole-3-carbonyl)-amino]-adamantan-1-yl}-amide] was tested. Which Emax did it give?
The Emax was 63 to 99%.

`Cc1cncc(C(=O)NC23CC4CC(CC(NC(=O)c5ccc(F)c(C)c5)(C4)C2)C3)n1` [Example 166, 6-Methyl-pyrazine-2-carboxylic acid [3-(4-fluoro-3-methyl-benzoylamino)-adamantan-1-yl]-amide] was tested. Which Emax did it give?
Its Emax is 63 to 99%.

`COCCNc1cccc(C(=O)NC23CC4CC(CC(NC(=O)c5ccccn5)(C4)C2)C3)n1` [Example 224, 6-(2-Methoxy-ethylamino)-pyridine-2-carboxylic acid {3-[(pyridine-2-carbonyl)-amino]-adamantan-1-yl}-amide] was tested. Which Emax did it give?
Its Emax is 63 to 99%.

For `COc1cc(C(=O)NC23CC4CC(C2)CC(NC(=O)c2cncc(C)n2)(C4)C3)ccc1F` [Example 159, 6-Methyl-pyrazine-2-carboxylic acid [3-(4-fluoro-3-methoxy-benzoylamino)-adamantan-1-yl]-amide], which Emax is on record?
The Emax was 70 to 99%.

For `O=C(NC12CC3CC(C1)CC(NC(=O)c1cn4cc(Cl)ccc4n1)(C3)C2)c1ccccn1` [Example 86, 6-Chloro-imidazo[1,2-a]pyridine-2-carboxylic acid {3-[(pyridine-2-carbonyl)-amino]-adamantan-1-yl}-amide], which Emax is on record?
The Emax was 63 to 99%.

`Cc1cccc(C(=O)NC23CC4CC(C2)CC(NC(=O)c2cccc(F)n2)(C4)C3)n1` [Example 135, 6-Methyl-pyridine-2-carboxylic acid {3-[(6-fluoro-pyridine-2-carbonyl)-amino]-adamantan-1-yl}-amide] was tested. Which Emax did it give?
The Emax was 70 to 99%.

Which Emax does the source give for `CCOc1cc(C(=O)NC23CC4CC(C2)CC(NC(=O)c2cncc(C)n2)(C4)C3)ccn1` [Example 155, 6-Methyl-pyrazine-2-carboxylic acid {3-[(2-ethoxy-pyridine-4-carbonyl)-amino]-adamantan-1-yl}-amide] here?
Its Emax is 70 to 99%.

`Cc1cccc(C(=O)NC23CC4CC(C2)CC(NC(=O)c2cccc(NCCC(N)=O)n2)(C4)C3)n1` [Example 240, 6-(2-Carbamoyl-ethylamino)-pyridine-2-carboxylic acid (3-[(6-methyl-pyridine-2-carbonyl)-amino]-adamantan-1-yl}-amide] was tested. Which Emax did it give?
Its Emax is 63 to 99%.

Which Emax does the source give for `Cc1cncc(C(=O)NC23CC4CC(CC(NC(=O)c5ccc(F)cc5)(C4)C2)C3)n1` [Example 177, 6-Methyl-pyrazine-2-carboxylic acid [3-(4-fluoro-benzoylamino)-adamantan-1-yl]-amide] here?
Its Emax is 63 to 99%.

How did the Emax turn out when `CN(C)CCNc1cccc(C(=O)NC23CC4CC(CC(NC(=O)c5ccccn5)(C4)C2)C3)n1` [Example 222, 6-(2-Dimethylamino-ethylamino)-pyridine-2-carboxylic acid {3-[(pyridine-2-carbonyl)-amino]-adamantan-1-yl}-amide] was run?
The Emax was 63 to 99%.

`Cn1nc(C(=O)NC23CC4CC(CC(NC(=O)c5ccccn5)(C4)C2)C3)cc1-c1cccs1` [Example 8, Pyridine-2-carboxylic acid {3-[(1-methyl-5-thiophen-2-yl-1H-pyrazole-3-carbonyl)-amino]-adamantan-1-yl}-amide] was tested. Which Emax did it give?
Its Emax is 90 to 99%.

Which Emax does the source give for `Cc1cccc(C(=O)NC23CC4CC(C2)CC(NC(=O)C2CCC2)(C4)C3)n1` [Example 46, 6-Methyl-pyridine-2-carboxylic acid [3-(cyclobutanecarbonyl-amino)-adamantan-1-yl]-amide] here?
Its Emax is 63 to 99%.

For `O=C(NC12CC3CC(C1)CC(NC(=O)c1cccc(N4CCCC4)n1)(C3)C2)c1ccccn1` [Example 61, 6-Pyrrolidin-1-yl-pyridine-2-carboxylic acid {3-[(pyridine-2-carbonyl)-amino]-adamantan-1-yl}-amide], which Emax is on record?
The Emax was 63 to 99%.

same assay, conditions: positive modulation, increase in EC20 glutamate response

With `Cc1cncc(C(=O)NC23CC4CC(CC(NC(=O)c5cc(-c6ccccc6)ncn5)(C4)C2)C3)n1` [Example 257, 6-Phenyl-pyrimidine-4-carboxylic acid {3-[(6-methyl-pyrazine-2-carbonyl)-amino]-adamantan-1-yl}-amide] as the compound, how does the EC50 read?
Its EC50 is 830 nM.

And the maximum modulation?
The maximum modulation was 120%.
